Results taken from patent US11242343B2 (Incyte Corporation, priority 2016, dated 2022).

The compounds below were run against HPK1 (Homo sapiens, UniProt Q92918) (assay: HPK1 Kinase Binding Assay). Settings: LanthaScreen tracer 222 binding, one hour incubation at 25° C.
Method: Example A. HPK1 Kinase Binding Assay
A stock solution of 1 mM test compound was prepared in DMSO. The compound plate was prepared by 3-fold and 11-point serial dilutions. 0.1 μL of the compound in DMSO was transferred from the compound plate to the white 384 well polystyrene plates. The assay buffer contained 50 mM HEPES, pH 7.5, 0.01% Tween-20, 5 mM MgCl2, 0.01% BSA, and 5 mM DTT. 5 μl of 4 nM active HPK1 (SignalChem M23-11G) prepared in the buffer was added to the plate. The enzyme concentration given was based on the given stock concentration reported by the vender. 5 μl of 18 nM tracer 222 (ThermoFisher PV6121) and 4 nM LanthaScreen Eu-Anti GST antibody (ThermoFisher PV5595) were added. After one hour incubation at 25° C., the plates were read on a PHERAstar FS plate reader (BMG Labtech). Ki values were determined.

HPK1, sequence (Q92918 whole entry, looked up): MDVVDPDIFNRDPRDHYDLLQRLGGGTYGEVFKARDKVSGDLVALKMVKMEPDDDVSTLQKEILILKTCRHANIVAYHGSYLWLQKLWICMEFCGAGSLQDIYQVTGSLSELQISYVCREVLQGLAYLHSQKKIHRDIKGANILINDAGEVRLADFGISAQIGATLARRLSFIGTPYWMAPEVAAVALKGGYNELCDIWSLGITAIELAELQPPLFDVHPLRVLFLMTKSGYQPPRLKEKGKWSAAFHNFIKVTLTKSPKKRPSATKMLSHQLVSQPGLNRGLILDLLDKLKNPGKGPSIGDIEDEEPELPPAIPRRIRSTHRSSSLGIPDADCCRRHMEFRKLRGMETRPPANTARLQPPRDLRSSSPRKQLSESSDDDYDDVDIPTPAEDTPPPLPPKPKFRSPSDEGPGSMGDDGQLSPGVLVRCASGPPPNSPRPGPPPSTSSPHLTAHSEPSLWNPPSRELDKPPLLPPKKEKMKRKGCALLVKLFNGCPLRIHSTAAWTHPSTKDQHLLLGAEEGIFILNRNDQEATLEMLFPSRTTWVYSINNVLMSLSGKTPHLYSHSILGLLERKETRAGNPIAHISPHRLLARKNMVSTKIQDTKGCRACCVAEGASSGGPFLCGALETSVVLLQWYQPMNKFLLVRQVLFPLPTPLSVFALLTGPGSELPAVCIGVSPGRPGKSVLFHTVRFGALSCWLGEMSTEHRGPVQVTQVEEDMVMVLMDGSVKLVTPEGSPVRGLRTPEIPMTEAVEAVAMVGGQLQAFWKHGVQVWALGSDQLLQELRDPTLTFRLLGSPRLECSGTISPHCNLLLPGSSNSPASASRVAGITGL

Ki, ≤ 100 nM:
CN1CCN(c2ccc(-c3n[nH]c4ccc(-c5cncc6oc(C(C)(C)C)nc56)nc34)cc2)CC1 [Example 33, 2-tert-Butyl-7-(3-(4-(4-methylpiperazin-1-yl)phenyl)-1H-pyrazolo[4,3-b]pyridin-5-yl)oxazolo[5,4-c]pyridine]
CN1CCN(c2ccc(-c3n[nH]c4ccc(-c5cnc6nccnc6c5)nc34)cc2)CC1 [Example 32, 7-(3-(4-(4-methylpiperazin-1-yl)phenyl)-1H-pyrazolo[4,3-b]pyridin-5-yl)pyrido[3,2-b]pyrazine]
CN1CCN(c2ccc(-c3n[nH]c4ccc(-c5cccc(NS(C)(=O)=O)c5F)nc34)cc2)CC1 [Example 13, N-(2-Fluoro-3-(3-(4-(4-methylpiperazin-1-yl)phenyl)-1H-pyrazolo[4,3-b]pyridin-5-yl)phenyl)methanesulfonamide]
CN1CCN(c2ccc(-c3n[nH]c4ccc(-c5cncnc5)nc34)cc2)CC1 [Example 26, 3-(4-(4-Methylpiperazin-1-yl)phenyl)-5-(pyrimidin-5-yl)-1H-pyrazolo[4,3-b]pyridine]
CCN1CCN(c2ccc(-c3n[nH]c4cc(C#N)c(-c5c(F)ccc6c5CCNC6)nc34)cc2)CC1 [Example 75]
CNCc1cc(C)c(-c2nc3c(-c4ccc(C(=O)NC)nc4)n[nH]c3cc2C#N)c(F)c1 [Example 72, 5-(6-Cyano-5-(2-fluoro-6-methyl-4-((methylamino)methyl)phenyl)-1H-pyrazolo[4,3-b]pyridin-3-yl)-N-methylpicolinamide]
Cc1ccccc1-c1ccc2[nH]nc(-c3ccc(N4CCN(C)CC4)cc3)c2n1 [Example 3]
Cc1cccc(F)c1-c1ccc2[nH]nc(-c3ccc(N4CCN(C)CC4)cc3)c2n1 [Example 7, 5-(2-Fluoro-6-methylphenyl)-3-(4-(4-methylpiperazin-1-yl)phenyl)-1H-pyrazolo[4,3-b]pyridine]
CN1CCN(c2ccc(-c3n[nH]c4ccc(-c5cccc6c5CCC6NCc5ccccc5)nc34)cc2)CC1 (stereo not shown) [Example 50, N-Benzyl-4-(3-(4-(4-methylpiperazin-1-yl)phenyl)-1H-pyrazolo[4,3-b]pyridin-5-yl)-2,3-dihydro-1H-inden-1-amine]
CN1CCC(NC(=O)c2ccc(-c3n[nH]c4ccc(-c5ccccc5F)nc34)cc2)CC1 [Example 55, 4-(5-(2-Fluorophenyl)-1H-pyrazolo[4,3-b]pyridin-3-yl)-N-(1-methylpiperidin-4-yl)benzamide]
Cc1n[nH]cc1-c1ccc2[nH]nc(-c3ccc(N4CCN(C)CC4)cc3)c2n1 [Example 34, 5-(3-Methyl-1H-pyrazol-4-yl)-3-(4-(4-methylpiperazin-1-yl)phenyl)-1H-pyrazolo[4,3-b]pyridine]
CN1CCN(c2ccc(-c3n[nH]c4ccc(-c5ccccc5F)nc34)cc2)CC1 [Example 4, 5-(2-Fluorophenyl)-3-(4-(4-methylpiperazin-1-yl)phenyl)-1H-pyrazolo[4,3-b]pyridine]
Cc1cccc(F)c1-c1nc2c(-c3cnn(C)c3)n[nH]c2cc1C#N [Example 77]
Cn1cc(-c2n[nH]c3cc(C#N)c(-c4c(F)ccc5c4CCNC5)nc23)cn1 [Example 74]
CNCc1cc(C)c(-c2nc3c(-c4cnn(C)c4)n[nH]c3cc2C#N)c(F)c1 [Example 66, 5-(2-Fluoro-6-methyl-4-((methylamino)methyl)phenyl)-3-(1-methyl-1H-pyrazol-4-yl)-1H-pyrazolo[4,3-b]pyridine-6-carbonitrile]
CN1CCN(c2ccc(-c3n[nH]c4ccc(-c5c(F)cccc5CO)nc34)cc2)CC1 [Example 11, (3-Fluoro-2-(3-(4-(4-methylpiperazin-1-yl)phenyl)-1H-pyrazolo[4,3-b]pyridin-5-yl)phenyl)methanol]
CN1CCN(c2ccc(-c3n[nH]c4ccc(-c5ccccc5C#N)nc34)cc2)CC1 [Example 19]
CN1CCN(c2ccc(-c3n[nH]c4ccc(-c5ccccc5C(F)(F)F)nc34)cc2)CC1 [Example 5, 3-(4-(4-Methylpiperazin-1-yl)phenyl)-5-(2-(trifluoromethyl)phenyl)-1H-pyrazolo[4,3-b]pyridine]
CN1CCN(c2ccc(-c3n[nH]c4ccc(-c5cnn6ccccc56)nc34)cc2)CC1 [Example 35, 3-(4-(4-Methylpiperazin-1-yl)phenyl)-5-(pyrazolo[1,5-a]pyridin-3-yl)-1H-pyrazolo[4,3-b]pyridine]
CNCc1cc(C)c(-c2nc3c(-c4cnc(N5CCN(C)CC5)nc4)n[nH]c3cc2C#N)c(F)c1 [Example 68, 5-(2-Fluoro-6-methyl-4-((methylamino)methyl)phenyl)-3-(2-(4-methylpiperazin-1-yl)pyrimidin-5-yl)-1H-pyrazolo[4,3-b]pyridine-6-carbonitrile]
CNCc1cc(C)c(-c2nc3c(-c4ccc(N5CCN(C)CC5)nc4)n[nH]c3cc2C#N)c(F)c1 [Example 67, 5-(2-Fluoro-6-methyl-4-((methylamino)methyl)phenyl)-3-(6-(4-methylpiperazin-1-yl)pyridin-3-yl)-1H-pyrazolo[4,3-b]pyridine-6-carbonitrile]
CN1CCN(c2ccc(-c3n[nH]c4ccc(-c5cccc(C(=O)NCc6ccccc6)c5F)nc34)cc2)CC1 [Example 42, N-Benzyl-2-fluoro-3-(3-(4-(4-methylpiperazin-1-yl)phenyl)-1H-pyrazolo[4,3-b]pyridin-5-yl)benzamide]
CNCc1cc(F)c(-c2ccc3[nH]nc(-c4ccc(N5CCN(C)CC5)cc4)c3n2)c(F)c1 [Example 61, 1-(3,5-Difluoro-4-(3-(4-(4-methylpiperazin-1-yl)phenyl)-1H-pyrazolo[4,3-b]pyridin-5-yl)phenyl)-N-methylmethanamine]
CN1CCN(c2ccc(-c3n[nH]c4ccc(-c5cccc(F)c5F)nc34)cc2)CC1 [Example 9, 5-(2,3-Difluorophenyl)-3-(4-(4-methylpiperazin-1-yl)phenyl)-1H-pyrazolo[4,3-b]pyridine]
CN1CCN(c2ccc(-c3n[nH]c4ccc(-c5cncc(-c6ncco6)c5)nc34)cc2)CC1 [Example 29, 2-(5-(3-(4-(4-Methylpiperazin-1-yl)phenyl)-1H-pyrazolo[4,3-b]pyridin-5-yl)pyridin-3-yl)oxazole]
CN1CCN(c2ccc(-c3n[nH]c4ccc(-c5cccc6c5CCC6N)nc34)cc2)CC1 (stereo not shown) [Example 47, 4-(3-(4-(4-Methylpiperazin-1-yl)phenyl)-1H-pyrazolo[4,3-b]pyridin-5-yl)-2,3-dihydro-1H-inden-1-amine]
CN1CCN(c2ccc(-c3n[nH]c4ccc(-c5cccc(C(=O)NCc6ccncc6)c5F)nc34)cc2)CC1 [Example 43, 2-Fluoro-3-(3-(4-(4-methylpiperazin-1-yl)phenyl)-1H-pyrazolo[4,3-b]pyridin-5-yl)-N-(pyridin-4-ylmethyl)benzamide]
CN1CCN(c2ccc(-c3n[nH]c4ccc(-c5cncc6ccccc56)nc34)cc2)CC1 [Example 37, 4-(3-(4-(4-Methylpiperazin-1-yl)phenyl)-1H-pyrazolo[4,3-b]pyridin-5-yl)isoquinoline]
CNC(=O)c1cccc(-c2ccc3[nH]nc(-c4ccc(N5CCN(C)CC5)cc4)c3n2)c1F [Example 41, 2-Fluoro-N-methyl-3-(3-(4-(4-methylpiperazin-1-yl)phenyl)-1H-pyrazolo[4,3-b]pyridin-5-yl)benzamide]
CN1CCN(c2ccc(-c3n[nH]c4ccc(-c5cnc6cnn(C)c6c5)nc34)cc2)CC1 [Example 28, 1′-Methyl-3-(4-(4-methylpiperazin-1-yl)phenyl)-1H,1′H-5,6′-bipyrazolo[4,3-b]pyridine]
CCOC(=O)c1cccc(-c2ccc3[nH]nc(-c4ccc(N5CCN(C)CC5)cc4)c3n2)c1F [Example 12, Ethyl 2-fluoro-3-(3-(4-(4-methylpiperazin-1-yl)phenyl)-1H-pyrazolo[4,3-b]pyridin-5-yl)benzoate]
Cc1cccc(F)c1-c1nc2c(-c3ccc(N4CCN(C)CC4)nc3)n[nH]c2cc1C#N [Example 62]
CNCc1cc(C)c(-c2nc3c(-c4ccc(C(C)(C)O)nc4)n[nH]c3cc2C#N)c(F)c1 [Example 71, 5-(2-Fluoro-6-methyl-4-((methylamino)methyl)phenyl)-3-(6-(2-hydroxypropan-2-yl)pyridin-3-yl)-1H-pyrazolo[4,3-b]pyridine-6-carbonitrile]
CN1CCN(c2ccc(-c3n[nH]c4ccc(-c5cnc6c(c5)ncn6C)nc34)cc2)CC1 [Example 31, 5-(3-Methyl-3H-imidazo[4,5-b]pyridin-6-yl)-3-(4-(4-methylpiperazin-1-yl)phenyl)-1H-pyrazolo[4,3-b]pyridine]
CN1CCN(c2ccc(-c3n[nH]c4ccc(-c5cccn6ccnc56)nc34)cc2)CC1 [Example 44, 5-(Imidazo[1,2-a]pyridin-8-yl)-3-(4-(4-methylpiperazin-1-yl)phenyl)-1H-pyrazolo[4,3-b]pyridine]
CN1CCN(c2ccc(-c3n[nH]c4ccc(-c5cccc6c5CCNC6)nc34)cc2)CC1 [Example 46, 5-(3-(4-(4-Methylpiperazin-1-yl)phenyl)-1H-pyrazolo[4,3-b]pyridin-5-yl)-1,2,3,4-tetrahydroisoquinoline]
COc1cccc(F)c1-c1ccc2[nH]nc(-c3ccc(N4CCN(C)CC4)cc3)c2n1 [Example 8, 5-(2-Fluoro-6-methoxyphenyl)-3-(4-(4-methylpiperazin-1-yl)phenyl)-1H-pyrazolo[4,3-b]pyridine]
